Measurements from ChEMBL document CHEMBL1128686, “Technetium-99m-labeled HOE 140: a potential bradykinin B2 receptor imaging agent” (J Med Chem, 1995).

Key:
B2 bradykinin receptor [1] = molecular target: T1, B2 bradykinin receptor (Cavia porcellus, UniProt O70526); assay: In vitro antagonistic activity for Bradykinin receptor B2 by guinea pig ileal membrane receptor assay.; format: functional
T1 sequence (O70526 whole entry): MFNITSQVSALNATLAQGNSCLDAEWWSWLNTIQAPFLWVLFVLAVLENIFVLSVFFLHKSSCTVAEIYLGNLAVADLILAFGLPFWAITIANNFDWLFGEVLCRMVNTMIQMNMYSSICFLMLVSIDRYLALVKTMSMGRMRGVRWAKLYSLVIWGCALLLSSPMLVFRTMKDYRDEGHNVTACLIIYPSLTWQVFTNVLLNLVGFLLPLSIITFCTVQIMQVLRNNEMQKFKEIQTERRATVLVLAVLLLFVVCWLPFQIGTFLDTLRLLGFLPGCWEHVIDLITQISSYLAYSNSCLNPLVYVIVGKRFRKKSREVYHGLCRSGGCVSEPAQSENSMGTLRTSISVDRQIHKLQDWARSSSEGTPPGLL

B2 bradykinin receptor [2] = molecular target: T1, B2 bradykinin receptor; assay: In vitro antagonistic activity for Bradykinin receptor B2 by guinea pig pulmonary artery assay.; format: functional
Rattus norvegicus [3] = assay: Distribution in bladder and urine of healthy rat 24 hr after iv injection into the femoral vein; format: ADME, organism-based, Urinary bladder/Urine; conditions: in vivo
Rattus norvegicus [4] = assay: Distribution in bladder and urine of healthy rat 30 min after iv injection into the femoral vein; format: ADME, organism-based, Urinary bladder/Urine; conditions: in vivo, 0.5 h
Rattus norvegicus [5] = assay: Distribution in bladder and urine of healthy rat 4 hr after iv injection into the femoral vein; format: ADME, organism-based, Urinary bladder/Urine; conditions: in vivo
Rattus norvegicus [6] = assay: Distribution in bladder and urine of healthy rat 5 min after iv injection into the femoral vein; format: ADME, organism-based, Urinary bladder/Urine; conditions: in vivo
Rattus norvegicus [7] = assay: Distribution in blood of healthy rat 15 min after iv injection into the femoral vein; format: ADME, organism-based; conditions: in vivo, 0.25 h
Rattus norvegicus [8] = assay: Distribution in blood of healthy rat 24 hr after iv injection into the femoral vein; format: ADME, organism-based; conditions: in vivo
Rattus norvegicus [9] = assay: Distribution in blood of healthy rat 30 min after iv injection into the femoral vein; format: ADME, organism-based; conditions: in vivo, 0.5 h
Rattus norvegicus [10] = assay: Distribution in blood of healthy rat 4 hr after iv injection into the femoral vein; format: ADME, organism-based; conditions: in vivo
Rattus norvegicus [11] = assay: Distribution in blood of healthy rat 5 min after iv injection into the femoral vein; format: ADME, organism-based; conditions: in vivo
Rattus norvegicus [12] = assay: Distribution in colon of healthy rat 15 min after iv injection into the femoral vein; format: ADME, organism-based; conditions: in vivo, 0.25 h
Rattus norvegicus [13] = assay: Distribution in colon of healthy rat 24 hr after iv injection into the femoral vein; format: ADME, organism-based; conditions: in vivo
Rattus norvegicus [14] = assay: Distribution in colon of healthy rat 30 min after iv injection into the femoral vein; format: ADME, organism-based; conditions: in vivo, 0.5 h
Rattus norvegicus [15] = assay: Distribution in colon of healthy rat 4 hr after iv injection into the femoral vein; format: ADME, organism-based; conditions: in vivo
Rattus norvegicus [16] = assay: Distribution in colon of healthy rat 5 min after iv injection into the femoral vein; format: ADME, organism-based; conditions: in vivo
Rattus norvegicus [17] = assay: Distribution in content of colon of healthy rat 15 min after iv injection into the femoral vein; format: ADME, organism-based; conditions: in vivo, 0.25 h
Rattus norvegicus [18] = assay: Distribution in content of colon of healthy rat 24 hr after iv injection into the femoral vein; format: ADME, organism-based; conditions: in vivo
Rattus norvegicus [19] = assay: Distribution in content of colon of healthy rat 30 min after iv injection into the femoral vein; format: ADME, organism-based; conditions: in vivo, 0.5 h
Rattus norvegicus [20] = assay: Distribution in content of colon of healthy rat 4 hr after iv injection into the femoral vein; format: ADME, organism-based; conditions: in vivo
Rattus norvegicus [21] = assay: Distribution in content of colon of healthy rat 5 min after iv injection into the femoral vein; format: ADME, organism-based; conditions: in vivo
Rattus norvegicus [22] = assay: Distribution in content of small intestine of healthy rat 15 min after iv injection into the femoral vein; format: ADME, organism-based; conditions: in vivo, 0.25 h
Rattus norvegicus [23] = assay: Distribution in content of small intestine of healthy rat 30 min after iv injection into the femoral vein; format: ADME, organism-based; conditions: in vivo, 0.5 h
Rattus norvegicus [24] = assay: Distribution in content of small intestine of healthy rat 4 hr after iv injection into the femoral vein; format: ADME, organism-based; conditions: in vivo
Rattus norvegicus [25] = assay: Distribution in content of small intestine of healthy rat 5 min after iv injection into the femoral vein; format: ADME, organism-based; conditions: in vivo
[26] = Distribution in feces of healthy rat 24 hr after iv injection into the femoral vein; format: ADME, organism-based; conditions: faeces, read-out: Organ distribution
Rattus norvegicus [27] = assay: Distribution in lung of healthy rat 24 hr after iv injection into the femoral vein; format: ADME, organism-based; conditions: in vivo
Rattus norvegicus [28] = assay: Distribution in lung of healthy rat 30 min after iv injection into the femoral vein; format: ADME, organism-based; conditions: in vivo, 0.5 h
Rattus norvegicus [29] = assay: Distribution in lung of healthy rat 4 hr after iv injection into the femoral vein; format: ADME, organism-based; conditions: in vivo
Rattus norvegicus [30] = assay: Distribution in lung of healthy rat 5 min after iv injection into the femoral vein; format: ADME, organism-based; conditions: in vivo
Rattus norvegicus [31] = assay: Distribution in small intestine of healthy rat 15 min after iv injection into the femoral vein; format: ADME, organism-based; conditions: in vivo, 0.25 h
Rattus norvegicus [32] = assay: Distribution in small intestine of healthy rat 24 hr after iv injection into the femoral vein; format: ADME, organism-based; conditions: in vivo
Rattus norvegicus [33] = assay: Distribution in small intestine of healthy rat 30 min after iv injection into the femoral vein; format: ADME, organism-based; conditions: in vivo, 0.5 h
Rattus norvegicus [34] = assay: Distribution in small intestine of healthy rat 4 hr after iv injection into the femoral vein; format: ADME, organism-based; conditions: in vivo
Rattus norvegicus [35] = assay: Distribution in small intestine of healthy rat 5 min after iv injection into the femoral vein; format: ADME, organism-based; conditions: in vivo
Rattus norvegicus [36] = assay: Distribution in spleen of healthy rat 15 min after iv injection into the femoral vein; format: ADME, organism-based; conditions: in vivo, 0.25 h
Rattus norvegicus [37] = assay: Distribution in spleen of healthy rat 24 hr after iv injection into the femoral vein; format: ADME, organism-based; conditions: in vivo
Rattus norvegicus [38] = assay: Distribution in spleen of healthy rat 30 min after iv injection into the femoral vein; format: ADME, organism-based; conditions: in vivo, 0.5 h
Rattus norvegicus [39] = assay: Distribution in spleen of healthy rat 4 hr after iv injection into the femoral vein; format: ADME, organism-based; conditions: in vivo
Rattus norvegicus [40] = assay: Distribution in stomach of healthy rat 15 min after iv injection into the femoral vein; format: ADME, organism-based; conditions: in vivo, 0.25 h
Rattus norvegicus [41] = assay: Distribution in stomach of healthy rat 24 hr after iv injection into the femoral vein; format: ADME, organism-based; conditions: in vivo
Rattus norvegicus [42] = assay: Distribution in stomach of healthy rat 30 min after iv injection into the femoral vein; format: ADME, organism-based; conditions: in vivo, 0.5 h
Rattus norvegicus [43] = assay: Distribution in stomach of healthy rat 4 hr after iv injection into the femoral vein; format: ADME, organism-based; conditions: in vivo
Rattus norvegicus [44] = assay: Distribution in stomach of healthy rat 5 min after iv injection into the femoral vein; format: ADME, organism-based; conditions: in vivo
Rattus norvegicus [45] = assay: Distribution in thyroid gland of healthy rat 15 min after iv injection into the femoral vein; format: ADME, organism-based; conditions: in vivo, 0.25 h
Rattus norvegicus [46] = assay: Distribution in thyroid gland of healthy rat 24 hr after iv injection into the femoral vein; format: ADME, organism-based; conditions: in vivo
Rattus norvegicus [47] = assay: Distribution in thyroid gland of healthy rat 30 min after iv injection into the femoral vein; format: ADME, organism-based; conditions: in vivo, 0.5 h
Rattus norvegicus [48] = assay: Distribution in thyroid gland of healthy rat 4 hr after iv injection into the femoral vein; format: ADME, organism-based; conditions: in vivo
Rattus norvegicus [49] = assay: Distribution in thyroid gland of healthy rat 5 min after iv injection into the femoral vein; format: ADME, organism-based; conditions: in vivo
Rattus norvegicus [50] = assay: Distribution in lung of healthy rat 15 min after iv injection into the femoral vein; format: ADME, organism-based; conditions: in vivo, 0.25 h
Rattus norvegicus [51] = assay: Distribution in kidney of healthy rat 15 min after iv injection into the femoral vein; format: ADME, organism-based; conditions: in vivo, 0.25 h
Rattus norvegicus [52] = assay: Distribution in kidney of healthy rat 24 hr after iv injection into the femoral vein; format: ADME, organism-based; conditions: in vivo
Rattus norvegicus [53] = assay: Distribution in kidney of healthy rat 4 hr after iv injection into the femoral vein; format: ADME, organism-based; conditions: in vivo
Rattus norvegicus [54] = assay: Distribution in kidney of healthy rat 5 min after iv injection into the femoral vein; format: ADME, organism-based; conditions: in vivo
Rattus norvegicus [55] = assay: Distribution in liver of healthy rat 15 min after iv injection into the femoral vein; format: ADME, organism-based; conditions: in vivo, 0.25 h
Rattus norvegicus [56] = assay: Distribution in liver of healthy rat 24 hr after iv injection into the femoral vein; format: ADME, organism-based; conditions: in vivo
Rattus norvegicus [57] = assay: Distribution in liver of healthy rat 30 min after iv injection into the femoral vein; format: ADME, organism-based; conditions: in vivo, 0.5 h
Rattus norvegicus [58] = assay: Distribution in liver of healthy rat 4 hr after iv injection into the femoral vein; format: ADME, organism-based; conditions: in vivo
Rattus norvegicus [59] = assay: Distribution in liver of healthy rat 5 min after iv injection into the femoral vein; format: ADME, organism-based; conditions: in vivo
Rattus norvegicus [60] = assay: Distribution in spleen of healthy rat 5 min after iv injection into the femoral vein; format: ADME, organism-based; conditions: in vivo
Rattus norvegicus [61] = assay: Distribution in kidney of healthy rat 30 min after iv injection into the femoral vein; format: ADME, organism-based; conditions: in vivo, 0.5 h
Rattus norvegicus [62] = assay: Distribution in bladder and urine of healthy rat 15 min after iv injection into the femoral vein; format: ADME, organism-based, Urinary bladder/Urine; conditions: in vivo, 0.25 h
Rattus norvegicus [63] = assay: Distribution in content of small intestine of healthy rat 24 hr after iv injection into the femoral vein; format: ADME, organism-based; conditions: in vivo

Compound: N=C(N)NCCC[C@H](NC(=O)[C@@H]1C[C@@H]2CCCC[C@@H]2N1C(=O)[C@H]1Cc2ccccc2CN1C(=O)[C@H](CO)NC(=O)[C@H](Cc1cccs1)NC(=O)CNC(=O)[C@@H]1C[C@@H](O)CN1C(=O)[C@@H]1CCCN1C(=O)[C@H](CCCNC(=N)N)NC(=O)[C@@H](CCCNC(=N)N)NC(=O)c1ccc(CN2CCCNCCNCCCNCC2)cc1)C(=O)O
- IC50 (B2 bradykinin receptor [1]): 0.00803 µM
- IC50 (B2 bradykinin receptor [2]): 0.014 µM
- Organ distribution (Rattus norvegicus [3]): 79.9%
- Organ distribution (Rattus norvegicus [4]): 33%
- Organ distribution (Rattus norvegicus [5]): 74.9%
- Organ distribution (Rattus norvegicus [6]): 3.83%
- Organ distribution (Rattus norvegicus [7]): 8.62%
- Organ distribution (Rattus norvegicus [8]): 0.5%
- Organ distribution (Rattus norvegicus [9]): 5.5%
- Organ distribution (Rattus norvegicus [10]): 0.5%
- Organ distribution (Rattus norvegicus [11]): 13.2%
- Organ distribution (Rattus norvegicus [12]): 0.65%
- Organ distribution (Rattus norvegicus [13]): 0.09%
- Organ distribution (Rattus norvegicus [14]): 0.48%
- Organ distribution (Rattus norvegicus [15]): 0.44%
- Organ distribution (Rattus norvegicus [16]): 1%
- Organ distribution (Rattus norvegicus [17]): 0.2%
- Organ distribution (Rattus norvegicus [18]): 0.56%
- Organ distribution (Rattus norvegicus [19]): 0.17%
- Organ distribution (Rattus norvegicus [20]): 6.96%
- Organ distribution (Rattus norvegicus [21]): 0.22%
- Organ distribution (Rattus norvegicus [22]): 2.79%
- Organ distribution (Rattus norvegicus [23]): 4.84%
- Organ distribution (Rattus norvegicus [24]): 1.85%
- Organ distribution (Rattus norvegicus [25]): 1.83%
- dose excreted at 24 h [26]: 8.4%
- Organ distribution (Rattus norvegicus [27]): 0.04%
- Organ distribution (Rattus norvegicus [28]): 0.55%
- Organ distribution (Rattus norvegicus [29]): 0.1%
- Organ distribution (Rattus norvegicus [30]): 1.2%
- Organ distribution (Rattus norvegicus [31]): 3.74%
- Organ distribution (Rattus norvegicus [32]): 0.19%
- Organ distribution (Rattus norvegicus [33]): 1.67%
- Organ distribution (Rattus norvegicus [34]): 0.71%
- Organ distribution (Rattus norvegicus [35]): 2.92%
- Organ distribution (Rattus norvegicus [36]): 0.19%
- Organ distribution (Rattus norvegicus [37]): 0.08%
- Organ distribution (Rattus norvegicus [38]): 0.19%
- Organ distribution (Rattus norvegicus [39]): 0.12%
- Organ distribution (Rattus norvegicus [40]): 1.13%
- Organ distribution (Rattus norvegicus [41]): 0.06%
- Organ distribution (Rattus norvegicus [42]): 0.91%
- Organ distribution (Rattus norvegicus [43]): 0.46%
- Organ distribution (Rattus norvegicus [44]): 1.55%
- Organ distribution (Rattus norvegicus [45]): 0.11%
- Organ distribution (Rattus norvegicus [46]): 0.01%
- Organ distribution (Rattus norvegicus [47]): 0.11%
- Organ distribution (Rattus norvegicus [48]): 0.02%
- Organ distribution (Rattus norvegicus [49]): 0.12%
- Organ distribution (Rattus norvegicus [50]): 0.82%
- Organ distribution (Rattus norvegicus [51]): 7%
- Organ distribution (Rattus norvegicus [52]): 3.07%
- Organ distribution (Rattus norvegicus [53]): 4.33%
- Organ distribution (Rattus norvegicus [54]): 8.46%
- Organ distribution (Rattus norvegicus [55]): 4.48%
- Organ distribution (Rattus norvegicus [56]): 2.72%
- Organ distribution (Rattus norvegicus [57]): 4.31%
- Organ distribution (Rattus norvegicus [58]): 5.03%
- Organ distribution (Rattus norvegicus [59]): 5.25%
- Organ distribution (Rattus norvegicus [60]): 0.27%
- Organ distribution (Rattus norvegicus [61]): 8.86%
- Organ distribution (Rattus norvegicus [62]): 20.3%
- Organ distribution (Rattus norvegicus [63]): 0.06%
